# Source: article PMC7516806, “Hybrid Antimicrobial Peptide Targeting Staphylococcus aureus and Displaying Anti-infective Activity in a Murine Model” (Frontiers in Microbiology, 2020)
# Experiments:
# S. aureus 29213 [1] = assay: Mouse model of subcutaneous infection; assay type: in vivo, ICR mice; settings: 80× MIC
# Description: (§1) To assess the antimicrobial activity of the peptide in vivo, a mouse model of subcutaneous infection was used ([Huang et al., 2011a]; [Omolo et al., 2017]). Female Institute for Cancer Research (ICR) mice (SPF, 20–25 g) were purchased from WeiTonglihua Co., Ltd. (Beijing, China), with eight animals per group. The mice were shaved on their backs and disinfected. S. aureus 29213 (100 μL) at a concentration of 1 × 10^8 CFU/mL was injected into the superficial skin of the mice. The mice were divided into four groups (n = 4), as follows: S. aureus + saline, S. aureus + S2 (80× MIC, 100 μL), S. aureus + vancomycin (Van) (80× MIC, 100 μL), and saline. S2, vancomycin, and saline were injected at the same site 1 h after infection. The mice were monitored over 24 h in an environmentally controlled room at 25 ± 1°C and 55 ± 5% relative humidity with a 12 h light/dark cycle.
# (§2) To image the infected skin tissues, the mice were euthanized 24 h after the injection of S. aureus. Samples were fixed in 4% buffered paraformaldehyde and subjected to hematoxylin/eosin (HE) staining. The antimicrobial activity in vivo was determined by colony counting of infected skin samples. Skin homogenates were serially diluted in saline and incubated at 37°C for 24 h.
# IL-6 = assay: Cytokine ELISA in infected skin; assay type: in vivo, ICR mice; settings: 24 h after treatment, P < 0.05
# Description: as §1
# (§3) The mice were treated as described above. Skin samples were treated according to the manufacturer’s instructions. The levels of tumor necrosis factor-alpha (TNF-α), interleukin-6 (IL-6), and granulocyte-macrophage colony-stimulating factor (GM-CSF) in infected skin were measured using enzyme-linked immunosorbent assay (ELISA) kits following the manufacturer’s instructions.
# TNF-α = assay: Cytokine ELISA in infected skin; assay type: in vivo, ICR mice; settings: 24 h after treatment, P < 0.05
# Description: as §1, §3
# S. aureus 29213 [2] = assay: Histology (HE) of infected skin tissue; assay type: in vivo, ICR mice; settings: 24 h after injection of S. aureus
# Description: as §1, §2
# S. aureus 29213 [3] = assay: Cytoplasmic membrane depolarization, diSC3-5; assay type: cell-based, Staphylococcus aureus; settings: 0.4 μM diSC3-5, 100 mM KCl, ex 622 nm, em 670 nm
# Description: The dye diSC3-5 was employed to assay cytoplasmic membrane depolarization activities ([Shao et al., 2018]). S. aureus 29213 was diluted to an OD600 = 0.05 after washing three times with buffer (5 mM HEPES, 5 mM glucose, pH 7.4) when the bacteria grew to mid-log phase. Then, diSC3-5 at a final concentration of 0.4 μM was added into the medium and incubated for 1–1.5 h. The final concentration of 100 mM KCl was then added to the solution for 15 min. The peptides were added to 12-well plates, which were filled with 2 mL of cell suspension. An F-4500 fluorescence spectrophotometer (Hitachi, Japan) was employed to measure the fluorescence value at an excitation wavelength of 622 nm and an emission wavelength of 670 nm. Maximal augmentation was monitored, and the fluorescence of the mixture of bacteria and dye served as the blank control.
# [4] = system: Staphylococcus aureus 29213; assay: Propidium iodide uptake assay; assay type: cell-based; settings: 0.5 × MIC, MIC and 2 × MIC; 10 μg/mL PI; ex 535 nm, em 617 nm
# Description: Staphylococcus aureus 29213 was washed three times with buffer (5 mM HEPES, 5 mM glucose, pH 7.4) after the bacterium grew to the mid-log phase and then diluted to an OD600 = 0.05. Propidium iodide was then added to the final concentration of 10 μg/mL and incubated for 30 min at 4°C. The peptides were added to 12-well plates, which were filled with 2 mL of the cell suspension. An F-4500 fluorescence spectrophotometer (Hitachi, Japan) was employed to measure the fluorescence value at an excitation wavelength of 535 nm and an emission wavelength of 617 nm. Maximal augmentation was monitored, and the fluorescence of the mixture of bacteria and dye served as the blank control ([Morita et al., 2015]).
Molecule,"decrease in bacterial colonies at infection site versus control group (S. aureus 29213 [1]; 100 μL injected at the infected site 1 h after infection, skin homogenate colony count after 24 h, P < 0.01) [fold]","ulceration (lesion) size, length × width (S. aureus 29213 [1]; 100 μL, 1 h after infection)",IL-6 generation in infected skin (IL-6),TNF-α generation in infected skin (TNF-α),histomorphological changes of skin tissue (HE) (S. aureus 29213 [2]),cytoplasmic membrane depolarization (diSC3-5 fluorescence) (S. aureus 29213 [3]),PI uptake (PI fluorescence) [4]
"CN[C@H](CC(C)C)C(=O)N[C@H]1C(=O)N[C@@H](CC(N)=O)C(=O)N[C@H]2C(=O)N[C@H]3C(=O)N[C@H](C(=O)N[C@H](C(=O)O)c4cc(O)cc(O)c4-c4cc3ccc4O)[C@H](O)c3ccc(c(Cl)c3)Oc3cc2cc(c3O[C@@H]2O[C@H](CO)[C@@H](O)[C@H](O)[C@H]2O[C@H]2C[C@](C)(N)[C@H](O)[C@H](C)O2)Oc2ccc(cc2Cl)[C@H]1O [vancomycin, reference compound]",10,significantly reduced ulceration sizes,suppressed,suppressed,good recovery,,
melittin [reference compound],,,,,,rapid fluorescence intensity increase,rapidly disrupted the bacterial membrane and caused PI uptake
